From patent US9296748B2, “Pyridinones” (Boehringer Ingelheim International GmbH, priority 2013, dated 2016)
pIC50: −log10 of the molar value.

Molecular target: BRD4-BD1 (Homo sapiens (Human), UniProt O60885)
Assay: BRD4-H4 Tetraacetylated Peptide Inhibition AlphaScreen
Format: binding
Conditions: GST-BRD4-BD1 (aa 44-168), biotinylated Acetyl-Histone H4 peptide
Protocol: Compounds are diluted in serial dilution 1:5 in assay buffer from 10 mM stock in DMSO (100 μM start concentration) in white OptiPlate-384 (PerkinElmer). […] Subsequently, 6 μl of premixed AlphaLISA Glutathione Acceptor Beads and AlphaScreen Streptavidin Donor Beads from PerkinElmer (in assay buffer at a concentration of 10 μg/ml each) are added and the samples are incubated for 30 min at RT in the dark (shaking 300 rpm). Afterwards, the signal is measured in a PerkinElmer Envision HTS Multilabel Reader using the AlphaScreen protocol from PerkinElmer. […] Negative control values are entered as low basis value when using the software GraphPad Prism for calculations. Furthermore, a positive control (probe molecule JQ1+ with protein/peptide mix) is pipetted. Determination of IC50 values are carried out using GraphPad Prism 3.03 software (or updates thereof).

Row | pIC50 | Structure (SMILES)
1 | 7.38 | Cc1cc(-c2nc3cnc(OCC4CC4)cc3n2C(C)c2ccccn2)cn(C)c1=O (racemic) [II-21, 5-[6-Cyclopropylmethoxy-1-(1-pyridin-2-yl-ethyl)-1H-imidazo[4,5-c]pyridin-2-yl]-1,3-dimethyl-1H-pyridin-2-one]
2 | 7.72 | Cc1cc(-c2nc3cnc(N4CCN(C)CC4)cc3n2Cc2ccccc2)cn(C)c1=O [II-1]
3 | 7.27 | Cc1cc(-c2nc3cnc(N4CCOCC4)cc3n2Cc2ccccn2)cn(C)c1=O [II-2]
4 | 7.74 | Cc1cc(-c2nc3cnc(N4CCOCC4)cc3n2Cc2ccccc2)cn(C)c1=O [II-3, 5-(1-Benzyl-6-morpholin-4-yl-1H-imidazo[4,5-c]pyridin-2-yl)-1,3-dimethyl-1H-pyridin-2-one]
5 | 7.26 | CCn1cc(-c2nc3cnc(N4CCN(C)CC4)cc3n2Cc2ccccc2)cc(C)c1=O [II-4]
6 | 7.92 | Cc1cc(-c2nc3cnc(N4CCN(C)CC4)cc3n2Cc2ccccc2)nn(C)c1=O [II-5]
7 | 6.79 | CCn1cc(-c2nc3cnc(N4CCOCC4)cc3n2Cc2ccccc2)cc(C)c1=O [II-6]
8 | 6.76 | Cc1cc(-c2nc3cnc(Cl)cc3n2Cc2ccccc2)cn(C)c1=O [II-7, 5-(1-Benzyl-6-chloro-1H-imidazo[4,5-c]pyridin-2-yl)-1,3-dimethyl-1H-pyridin-2-one]
9 | 6.83 | Cc1cc(-c2nc3cnccc3n2Cc2ccccc2)cn(C)c1=O [II-8]
10 | 7.52 | Cc1cc(-c2nc3cnc(N(C)C)cc3n2Cc2ccccc2)cn(C)c1=O [II-9]
11 | 7.35 | Cc1nc(-c2nc3cnc(N4CCN(C)CC4)cc3n2Cc2ccccc2)cn(C)c1=O [II-10]
12 | 6.99 | COC[C@H](C)n1c(-c2cc(C)c(=O)n(C)c2)nc2cnc(N3CCOC[C@@H]3C)cc21 [II-11]
13 | 7.31 | Cc1nc(-c2nc3cnc(N4CCOCC4)cc3n2Cc2ccccc2)cn(C)c1=O [II-12]
14 | 6.99 | Cc1cc(-c2nc3cnc(-n4ccnc4)cc3n2Cc2ccccc2)cn(C)c1=O [II-13, 5-(1-Benzyl-6-imidazol-1-yl-1H-imidazo[4,5-c]pyridin-2-yl)-1,3-dimethyl-1H-pyridin-2-one]
15 | 7.20 | Cc1cc(-c2nc3cnc(N4CCOCC4)cc3n2Cc2ccncc2)cn(C)c1=O [II-14]
16 | 7.38 | Cc1cc(-c2nc3cnc(N4CCOC[C@@H]4C)cc3n2Cc2ccccc2)cn(C)c1=O [II-15]
17 | 7.17 | Cc1cc(-c2nc3cnc(N)cc3n2Cc2ccccc2)cn(C)c1=O [II-16, 5-(6-Amino-1-benzyl-1H-imidazo[4,5-c]pyridin-2-yl)-1,3-dimethyl-1H-pyridin-2-one]
18 | 6.80 | Cc1cc(-c2nc3cnc(N4CCOC[C@@H]4C)cc3n2Cc2ccccn2)cn(C)c1=O [II-17]
19 | 6.63 | Cc1cc(-c2nc3cnc(N4CCOCC4)cc3n2[C@H](C)c2ccccc2)cn(C)c1=O [II-18]
20 | 7.57 | Cc1cc(-c2nc3cnc(N4CCOCC4)cc3n2[C@@H](C)c2ccccc2)cn(C)c1=O [II-19]
21 | 7.48 | Cc1cc(-c2nc3cnc(N4CCOCC4)cc3n2Cc2cccnc2)cn(C)c1=O [II-20]
22 | 7.47 | Cc1cc(-c2nc3cnc(N4CCN(C)CC4)cc3n2C(C)c2ccccn2)cn(C)c1=O (stereo not shown) [II-22]
23 | 7.48 | Cc1cc(-c2nc3cnccc3n2Cc2ccc(Cl)cc2)cn(C)c1=O [II-23]
24 | 7.42 | Cc1cc(-c2nc3cnc(C(C)C)cc3n2[C@@H](C)c2ccccc2)cn(C)c1=O [II-24]
25 | 8.10 | Cc1cc(-c2nc3cnc(C4CCOCC4)cc3n2[C@@H](C)c2ccccc2)nn(C)c1=O [II-25]
26 | 7.80 | Cc1cc(-c2nc3cnc(C4CCOCC4)cc3n2[C@@H](C)c2ccccc2)cn(C)c1=O [II-26]
27 | 6.78 | Cc1cc(-c2nc3cnccc3n2Cc2ccc(F)c(F)c2)cn(C)c1=O [II-27]
28 | 6.89 | Cc1cc(-c2nc3cnccc3n2Cc2ccccc2F)cn(C)c1=O [II-28]
29 | 6.89 | Cc1cc(-c2nc3cnc(N4CCOC[C@@H]4C)cc3n2[C@@H](C)c2ccccn2)cn(C)c1=O [II-29]

More lines, now with the values behind:

Row | Structure (SMILES) | pIC50
30 | Cc1cc(-c2nc3ccc(N4CCN(C)CC4)cc3n2Cc2ccccc2)cn(C)c1=O [Example I-1, 5-[1-Benzyl-6-(4-methylpiperazin-1-yl)-1H-1,3-benzodiazol-2-yl]-1,3-dimethyl-1,2-dihydropyridin-2-one] | 7.92
31 | Cn1cc(-c2nc3ccccc3n2Cc2ccccc2)ccc1=O [Example I-2] | 5.81
32 | Cc1cc(-c2nc3ccc(N4CCOCC4)cc3n2Cc2ccccc2)c[nH]c1=O [Example I-3] | 6.96
33 | Cn1cc(-c2nc3ccc(N4CCOCC4)cc3n2Cc2ccccc2)ccc1=O [Example I-4] | 6.29
34 | CN1CCN(c2ccc3nc(-c4ccc(=O)n(C)c4)n(Cc4ccccc4)c3c2)CC1 [Example I-5] | 6.26
35 | Cc1cc(-c2nc3ccc(N4CCOCC4)cc3n2Cc2ccccc2)cn(C)c1=O [Example I-6] | 7.72
36 | Cc1cc(-c2nc3ccc(N4CCN(C)CC4)cc3n2Cc2ccccc2)c[nH]c1=O [Example I-7] | 7.02
37 | Cc1cc(-c2nc3ccccc3n2Cc2ccccc2)c[nH]c1=O [Example I-8] | 6.22
38 | Cc1cc(-c2nc3ccc(N)cc3n2Cc2ccccc2)cn(C)c1=O [Example I-9, 5-(6-Amino-1-benzyl-1H-benzoimidazol-2-yl)-1,3-dimethyl-1H-pyridin-2-one] | 7.24
39 | CCn1cc(-c2nc3ccc(N4CCN(C)CC4)cc3n2Cc2ccccc2)cc(C)c1=O [Example I-10] | 7.31
40 | Cc1cc(-c2nc3ccc(N4CCN(C)CC4)cc3n2Cc2ccccc2)nn(C)c1=O [Example I-11] | 7.92
41 | Cc1cc(-c2nc3ccc(F)cc3n2Cc2ccccc2)cn(C)c1=O [Example I-12, 5-(1-Benzyl-6-fluoro-1H-benzoimidazol-2-yl)-1,3-dimethyl-1H-pyridin-2-one] | 7.74
42 | Cc1cc(-c2nc3ccccc3n2Cc2ccccc2)cn(C)c1=O [Example I-13] | 7.17
43 | Cc1nc(-c2nc3ccc(N4CCN(C)CC4)cc3n2Cc2ccccc2)cn(C)c1=O [Example I-14] | 7.44
44 | Cn1nc(-c2nc3ccccc3n2Cc2ccccc2)ccc1=O [Example I-15] | 5.86
45 | CN1CCN(c2ccc3nc(-c4ccc(=O)n(C)n4)n(Cc4ccccc4)c3c2)CC1 [Example I-16] | 6.72
46 | Cn1cc(-c2nc3ccccc3n2Cc2ccccc2)ncc1=O [Example I-18] | 5.95
47 | Cn1cc(-c2nc3ccc(N4CCOCC4)cc3n2Cc2ccccc2)ncc1=O [Example I-19] | 6.53
48 | CN1CCN(c2ccc3nc(-c4cn(C)c(=O)cn4)n(Cc4ccccc4)c3c2)CC1 [Example I-20] | 6.92
49 | Cc1nc(-c2nc3ccccc3n2Cc2ccccc2)cn(C)c1=O [Example I-21] | 6.70
50 | COc1ccc2nc(-c3cc(C)c(=O)n(C)c3)n(Cc3ccccc3)c2c1 [Example I-22] | 7.36

Row | Structure (SMILES) | pIC50
51 | Cc1cc(-c2nc3ccc(C#N)cc3n2Cc2ccccc2)cn(C)c1=O [Example I-23] | 6.72
52 | Cc1cc(-c2nc3ccc(C(=O)N(C)C)cc3n2Cc2ccccc2)cn(C)c1=O [Example I-24] | 6.89
53 | Cc1cc(-c2nc3ccc(C4CCOCC4)cc3n2Cc2ccccn2)cn(C)c1=O [Example I-25] | 7.14
54 | COC[C@H](C)n1c(-c2cc(C)c(=O)n(C)c2)nc2ccc(C3CCOCC3)cc21 [Example I-26] | 7.02
55 | Cc1cc(-c2nc3ccc(C4CCOCC4)cc3n2[C@@H](C)c2ccccn2)cn(C)c1=O [Example I-27] | 6.99
56 | COC[C@H](C)n1c(-c2cc(C)c(=O)n(C)c2)nc2ccc(C(C)C)cc21 [Example I-28] | 6.76
57 | Cc1cc(-c2nc3ccc(C(C)C)cc3n2[C@@H](C)c2ccccn2)cn(C)c1=O [Example I-29] | 6.74
58 | Cc1cc(-c2nc3ccc(C4(C(F)(F)F)CC4)cc3n2Cc2ccccn2)cn(C)c1=O [Example I-30] | 7.20
59 | COC[C@H](C)n1c(-c2cc(C)c(=O)n(C)c2)nc2ccc(N3CCOC[C@@H]3C)cc21 [Example I-31] | 7.12
60 | COC[C@H](C)n1c(-c2cc(C)c(=O)n(C)c2)nc2ccc(N)cc21 [Example I-32] | 6.57
61 | Cc1cc(-c2nc3ccc(C4CN(C)CCO4)cc3n2[C@@H](C)c2ccccc2)nn(C)c1=O (stereo partly shown) [Example I-33] | 7.33
62 | Cc1cc(-c2nc3ccc(C4CN(C)CCO4)cc3n2[C@@H](C)c2ccccc2)cn(C)c1=O (stereo partly shown) [Example I-34] | 7.31
63 | Cc1cc(-c2nc3ccc(C4CCN(C)C(=O)C4)cc3n2[C@@H](C)c2ccccc2)cn(C)c1=O (stereo partly shown) [Example I-35] | 7.64
64 | COC[C@H](C)n1c(-c2cc(C)c(=O)n(C)n2)nc2ccc(N3CCOC[C@@H]3C)cc21 [Example I-36] | 7.19
65 | Cc1cc(-c2nc3ccc(C4(C(F)(F)F)CC4)cc3n2[C@@H](C)c2ccccc2)cn(C)c1=O [Example I-37] | 6.99
66 | Cc1cc(-c2nc3ccc(C4CCN(C)C(=O)C4)cc3n2[C@@H](C)c2ccccc2)nn(C)c1=O (stereo partly shown) [Example I-38] | 7.49
67 | CC1CC(=O)NN=C1c1ccc2c(c1)nc(-c1cc(N)c(=O)n(C)c1)n2Cc1ccccc1 (stereo not shown) [Example V-1, 6-[2-(5-Amino-1-methyl-6-oxo-1,6-dihydro-pyridin-3-yl)-1-benzyl-1H-benzoimidazol-5-yl]-5-methyl-4,5-dihydro-2H-pyridazin-3-one] | 6.84
68 | Cn1cc(-c2nc3ccccc3n2Cc2ccccc2)cc(N)c1=O [Example V-2, 3-amino-5-(1-benzyl-1H-benzoimidazol-2-yl)-1-methyl-1H-pyridin-2-one] | 5.87
69 | CN1CCN(c2ccc3nc(-c4cc(N)c(=O)n(C)c4)n(Cc4ccccc4)c3c2)CC1 [Example V-3] | 7.14
70 | Cn1cc(-c2nc3ccc(N4CCOCC4)cc3n2Cc2ccccc2)cc(N)c1=O [Example V-4] | 6.88
